Experimental data as given in patent US20100075935A1, “XANTHINE MODULATORS OF ADENOSINE A1 RECEPTOR” (Auspex Pharmaceuticals, Inc., priority 2008, published 2010).
Each block holds one compound with its values, some of them ahead of it.

Columns and labels:
[1] = In vitro liver microsomal stability assay; format: in vitro ADME; conditions: human liver microsomes 0.5 mg/mL, 1 μM compound, 37° C., NADPH-generating system, compared with non isotopically enriched rolofylline, '+' marks one bin of −25%-0%, 0%-50%, 50%-150%
Method: Liver microsomal stability assays were conducted at 0.5 mg per mL liver microsome protein with an NADPH-generating system in 2% NaHCO3 (2.2 mM NADPH, 25.6 mM glucose 6-phosphate, 6 units per mL glucose 6-phosphate dehydrogenase and 3.3 mM MgCl2). Test compounds were prepared as solutions in 20% acetonitrile-water and added to the assay mixture (final assay concentration 1 μM) and incubated at 37° C. Final concentration of acetonitrile in the assay should be <1%. […] were taken out at times 0, 7.5, 15, 22.5, 30 minutes, and diluted with ice cold acetonitrile (200 μL) to stop the reactions. Samples were centrifuged at 12,000 RPM for 10 min to precipitate proteins. Supernatants were transferred to micro centrifuge tubes and stored for LC/MS/MS analysis of the degradation half-life of the test compounds. […] The degradation half-lives of Examples 1 through 4 (isotopically enriched compounds) as compared with non isotopically enriched rolofylline are shown in Table 1.

[2] = tested on: acute heart failure patients; conditions: cited from earlier work
[3] = rolofylline 30 mg daily for 3 days

Structure (SMILES): [2H]C([2H])([2H])C([2H])([2H])C([2H])([2H])n1c(=O)c2[nH]c(C34CC5CC(CC3C5)C4)nc2n(C([2H])([2H])C([2H])([2H])C([2H])([2H])[2H])c1=O [Example 2, 8-(Noradamantyl)-1-(d7-propyl)-3-(d7-propyl)-3,7-dihydro-purine-2,6-dione]
% increase of HLM degradation half-life [1]: + (−25%-0%)

Structure (SMILES): CCCn1c(=O)c2[nH]c(C34CC5CC(CC3C5)C4)nc2n(CCC)c1=O [Rolofylline, 8-(hexahydro-2,5-methano-pentalen-3a-yl)-1,3-dipropyl-3,7-dihydro-purine-2,6-dione]
urine output at 6 hours ([2]; acute heart failure patients, 6 hours): increased urine output at 6 hours
overall urine output over 24 hours ([2]; acute heart failure patients, 24 hours): did not increase overall urine output over 24 hours
patients with persistent renal impairment ([2]; rolofylline 30 mg daily for 3 days, acute heart failure patients): 8%
dyspnea improvement versus placebo [2, 3]: superior to placebo
instances of death, heart failure readmission, worsening heart failure or persistent renal impairment versus placebo [2, 3]: less instances

Next, values leading:

% increase of HLM degradation half-life [1]: + (−25%-0%)
Structure (SMILES): [2H]C([2H])([2H])C([2H])([2H])C([2H])([2H])n1c(=O)c2[nH]c(C34CC5CC(CC3C5)C4)nc2n(CCC)c1=O [Example 4, 8-(Noradamantyl)-1-(d7-propyl)-3-propyl-3,7-dihydro-purine-2,6-dione]

% increase of HLM degradation half-life [1]: + (−25%-0%)
Structure (SMILES): [2H]C([2H])([2H])C([2H])([2H])C([2H])([2H])n1c(=O)n(CCC)c(=O)c2[nH]c(C34CC5CC(CC3C5)C4)nc21 [Example 1, 8-(Noradamantyl)-1-propyl-3-(d7-propyl)-3,7-dihydro-purine-2,6-dione]

% increase of HLM degradation half-life [1]: + (−25%-0%)
Structure (SMILES): [2H]C([2H])(CC)n1c(=O)c2[nH]c(C34CC5CC(CC3C5)C4)nc2n(CCC)c1=O [Example 3, 8-(Noradamantyl)-1-(1,1-d2-propyl)-3-propyl-3,7-dihydro-purine-2,6-dione]
